Measured values from patent US11225565B2, “Purification of sugammadex” (SYNTHON B.V., priority 2018, dated 2022).

Columns and labels:
[1] = Osmolality of sugammadex solution in water (OSMOMAT 3000, freezing point comparison); format: physicochemical; conditions: concentration 108 mg/ml
Description: Osmolality was measured using OSMOMAT 3000 (Gonotec), a solution (concentration 108 mg/ml) of sugammadex in water was used. The osmolality of the solution was obtained by comparison of freezing point of the sugammadex solution and the freezing point of water.

[2] = Sodium content of sugammadex samples by potentiometric titration with HClO4; format: physicochemical; conditions: sugammadex solution in glacial acetic acid, 3 mg/ml, titrated with 0.1 M HClO4
Description: The sodium content was obtained by titration of sugammadex solution in glacial acetic acid (concentration 3 mg/ml) using 0.1 M solution of HClO4 using Titrator 794 DMS Titrino, Metrohm. The endpoint (VEQ) was determined potentiometrically.

Substance	Osmolality [1]	Sodium content % (wt/wt) based on amount of sugammadex [2]
6A,6B,6C,6D,6E,6F,6G,6H-Octakis-S-(2-carboxyethyl)-6A,6B,6C,6D,6E,6F,6G-octasulfanyl-gamma-cyclodextrin octasodium salt [Example 1]	322 mOsmol/kg	8.5 % (wt/wt)
6A,6B,6C,6D,6E,6F,6G,6H-Octakis-S-(2-carboxyethyl)-6A,6B,6C,6D,6E,6F,6G-octasulfanyl-gamma-cyclodextrin octasodium salt [Example 2]	320 mOsmol/kg	8.5 % (wt/wt)
6A,6B,6C,6D,6E,6F,6G,6H-Octakis-S-(2-carboxyethyl)-6A,6B,6C,6D,6E,6F,6G-octasulfanyl-gamma-cyclodextrin octasodium salt [Example 3]	349 mOsmol/kg	8.5 % (wt/wt)
6A,6B,6C,6D,6E,6F,6G,6H-Octakis-S-(2-carboxyethyl)-6A,6B,6C,6D,6E,6F,6G-octasulfanyl-gamma-cyclodextrin octasodium salt [Example 4 of WO2017144734 application, reference compound]	986 mOsmol/kg	11.14 % (wt/wt)
6A,6B,6C,6D,6E,6F,6G,6H-Octakis-S-(2-carboxyethyl)-6A,6B,6C,6D,6E,6F,6G-octasulfanyl-gamma-cyclodextrin octasodium salt [Example 4]	346 mOsmol/kg	8.5 % (wt/wt)
6A,6B,6C,6D,6E,6F,6G,6H-Octakis-S-(2-carboxyethyl)-6A,6B,6C,6D,6E,6F,6G-octasulfanyl-gamma-cyclodextrin octasodium salt [Example 5]	335 mOsmol/kg	8.5 % (wt/wt)
6A,6B,6C,6D,6E,6F,6G,6H-Octakis-S-(2-carboxyethyl)-6A,6B,6C,6D,6E,6F,6G-octasulfanyl-gamma-cyclodextrin octasodium salt [Example 6]	348 mOsmol/kg	8.5 % (wt/wt)
